From patent publication US20180036289A1 (Gilead Sciences, Inc., priority 2016, published 2018)

Test system: cell lines tested
Experiment: Cell proliferation assay, summary across all cell lines and drugs
Format: cell-based
Conditions: compared to primary drug alone
Method: All cell lines were obtained from the American Type Culture Collection (ATCC) Manassas, Va. (US). Master and working cell banks (MCB and WCB) were prepared by subculturing in ATCC-recommended media and freezing protocols (www.atcc.org). Cell line stocks for the assays were prepared from the WCB. The MCB, WCBs and assay stocks were prepared within respectively 3, 6 and 9 passages of the ATCC vial.
Solid powders of reference compounds were weighed on a calibrated balance and dissolved in 100% DMSO. DMSO samples were stored at room temperature. At the day of the experiment, the compound stock was diluted in 3.16 fold steps in 100% DMSO to obtain a 9-point dilution series. This was further diluted 31.6 times in 20 mM sterile Hepes buffer pH 7.4. A volume of 5 μl was transferred to the cells to generate a test concentration range from 3.16×10^−5M to 3.16×10^−9 M in duplicate. The final DMSO concentration during incubation was […] in all wells.
An assay stock was thawed and diluted in its ATCC recommended medium and dispensed in a 384-well plate, depending on the cell line used, at a concentration of 200-3200 cells per well in 45 μl medium. For each used cell line the optimal cell density is used. The margins of the plate were filled with phosphate-buffered saline. Plated cells were incubated in a humidified atmosphere of 5% CO2 at 37° C. After 24 hours, 5 μl of compound dilution was added and plates were further incubated for another 120 hours. After 120 hours, 25 μl of ATPlite 1Step™ (PerkinElmer) solution was added to each well, and subsequently shaken for 2 minutes. After 10 minutes of incubation in the dark, the luminescence was recorded on an Envision multimode reader (PerkinElmer).
IC50s were calculated by non-linear regression using IDBS XLfit 5. The percentage growth after 120 h (%-growth) was calculated as follows: 100%×(luminescencet=120h/luminescenceuntreated,t=120h). This was fitted to the ^10log compound concentration (conc) by a 4-parameter logistics curve: %−growth=bottom+(top−bottom)/(1+10^(log IC50-conc)*hill)), where hill is the Hill-coefficient, and bottom and top the asymptotic minimum and maximum cell growth that the compound allows in that assay.

Structure (SMILES): CC(C)c1nc(CN(C)C(=O)N[C@@H](CCN2CCOCC2)C(=O)N[C@H](CC[C@H](Cc2ccccc2)NC(=O)OCc2cncs2)Cc2ccccc2)cs1 [cobicistat]
- increase in sensitivity to the primary drug, maximum (maximum across all experiments): 8.7 fold
- increase in sensitivity to the primary drug, average (on average, across all experiments): 2.9 fold
